pIC50: −log10 of the molar value.
biological target: T1, GST-FAK (N-terminal GST fusion with truncated human FAK (376-1052 (end) amino acids)) (Homo sapiens, UniProt Q05397); assay: Biochemical enzyme assay for FAK activity (Caliper LC3000 mobility shift); details: Table 3; 100 uM ATP; read-out: FAK IC50
T1 construct: truncated human FAK (376-1052 (end) amino acids)
Method: 1. Biochemical Enzyme Assays for FAK Activity
The FAK assays described here are performed on two Caliper Life Sciences systems, the LC3000 and the EZ Reader II. These provide data on enzyme activity via measurement of the relative amounts of phosphorylated or unphosphorylated fluorescently labelled substrate peptide at the end of an enzymatic reaction. These different states of peptide are resolved by applying a potential difference across the sample. The presence of the charged phosphate group on the product (as opposed to the substrate) causes different peptide mobility between the two peptides. This is visualized by excitation of the fluorescent label on the substrate and product peptides and represented as peaks within the analysis software.
In order to measure inhibitor activity of FAK, inhibitors in the Caliper Life Sciences LC3000, a TTP Mosquito liquid handling instrument is used to place 0.25 ul of the appropriate concentration of inhibitor in 100% DMSO (for a dose response curve calculation) into each well of a 384-well plate. To this reaction components are added to a final volume of 25 ul: • 0.067 ng/ul GST-FAK (N-terminal GST fusion with truncated human FAK (376-1052 (end) amino acids)) • 100 uM ATP • 1 mM DTT • 1 mM MgCl2 • 1 uM substrate peptide (sequence FITC-KGWMEDYDYVHLQGKK-(CONH2)SEQ ID NO: 1)) • 1 mM FERM peptide (sequence NH2-GATQSFIIR-COOH (SEQ ID NO: 2)) • 100 mM HEPES pH 7.5 • 0.015% Brij-35
The reaction is incubated for 90 min at 25 C, and then stopped by the addition of 70 ul of Stop buffer (100 mM HEPES pH 7.5, 0.015% Brij-35, 10 mM EDTA).
The plate is read on a Caliper LC 3000 in an Off-Chip mobility shift assay format, using the following parameters for a 12-sipper chip: screening pressure—1.9 psi, upstream voltage—3000, downstream voltage—700. These conditions cause unphosphorylated substrate and phosphorylated product peptide to resolve as separate peaks allowing direct measurement of percentage of conversion of substrate to product. The percent conversion can be plotted against concentration of inhibitor to produce a sigmoid dose response curve, from which an IC50 can be calculated using XLFit for Microsoft Excel.

T1 sequence (Q05397 376-1052): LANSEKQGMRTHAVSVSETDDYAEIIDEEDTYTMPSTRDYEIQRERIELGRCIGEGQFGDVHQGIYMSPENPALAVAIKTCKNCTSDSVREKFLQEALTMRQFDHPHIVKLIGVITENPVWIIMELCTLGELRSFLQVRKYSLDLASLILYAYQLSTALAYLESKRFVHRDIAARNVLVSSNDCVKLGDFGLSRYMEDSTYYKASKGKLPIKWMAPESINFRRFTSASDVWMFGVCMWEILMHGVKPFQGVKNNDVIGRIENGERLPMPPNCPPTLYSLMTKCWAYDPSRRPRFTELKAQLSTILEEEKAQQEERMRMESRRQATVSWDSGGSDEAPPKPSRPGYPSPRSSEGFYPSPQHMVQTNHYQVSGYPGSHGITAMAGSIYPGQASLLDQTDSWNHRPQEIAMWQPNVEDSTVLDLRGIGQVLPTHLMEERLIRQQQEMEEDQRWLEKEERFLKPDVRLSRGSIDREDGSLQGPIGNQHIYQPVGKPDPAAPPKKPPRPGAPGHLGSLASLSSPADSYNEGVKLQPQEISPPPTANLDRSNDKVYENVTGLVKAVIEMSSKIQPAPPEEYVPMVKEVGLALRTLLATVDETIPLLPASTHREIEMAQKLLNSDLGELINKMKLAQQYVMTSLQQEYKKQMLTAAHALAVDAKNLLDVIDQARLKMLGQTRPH

Row | pIC50 | SMILES
1 | 6.00 to 7.00 | Fc1ccccc1CNc1ccnc(-c2cccnc2)n1 [Compound 93, N-(2-Fluorobenzyl)-2-pyridin-3-ylpyrimidin-4-amine]
2 | 5.00 to 6.00 | Nc1ccc(-c2nccc(NCc3ccccc3C(F)(F)F)n2)cn1 [Compound 94, 2-(6-Aminopyridin-3-yl)-N-[2-(trifluoromethyl)benzyl]pyrimidin-4-amine]
3 | < 5.00 | Cc1cccc(CNc2ccnc(-c3cccnc3N)n2)c1 [Compound 95, 2-(2-Aminopyridin-3-yl)-N-(3-methylbenzyl)pyrimidin-4-amine]
4 | < 5.00 | Nc1ncccc1-c1nccc(NCc2ccc(C(F)(F)F)cc2)n1 [Compound 96, 2-(2-Aminopyridin-3-yl)-N-[4-(trifluoromethyl)benzyl]pyrimidin-4-amine]
5 | < 5.00 | COc1ccc(CNc2ccnc(-c3cccnc3N)n2)cc1 [Compound 97, 2-(2-Aminopyridin-3-yl)-N-(4-methoxybenzyl)pyrimidin-4-amine]
6 | < 5.00 | CS(=O)(=O)c1ccc(CNc2ccnc(-c3cccnc3N)n2)cc1 [Compound 99, 2-(2-Aminopyridin-3-yl)-N-[4-(methylsulfonyl)benzyl]pyrimidin-4-amine]
7 | 5.00 to 6.00 | Nc1ncccc1-c1nccc(NCc2ncccc2C(F)(F)F)n1 [Compound 100, 2-(2-Aminopyridin-3-yl)-N-{[3-(trifluoromethyl)pyridin-2-yl]methyl}pyrimidin-4-amine]
8 | 5.00 to 6.00 | Cc1ccc(CNc2ccnc(-c3cccnc3N)n2)c(F)c1 [Compound 101, 2-(2-Aminopyridin-3-yl)-N-(2-fluoro-4-methylbenzyl)pyrimidin-4-amine]
9 | 5.00 to 6.00 | Nc1ncccc1-c1nccc(NCc2cc(F)ccc2C(F)(F)F)n1 [Compound 102, 2-(2-Aminopyridin-3-yl)-N-[5-fluoro-2-(trifluoromethyl)benzyl]pyrimidin-4-amine]
10 | 5.00 to 6.00 | Nc1ncccc1-c1nccc(NCc2cnccc2C(F)(F)F)n1 [Compound 103, 2-(2-Aminopyridin-3-yl)-N-{[4-(trifluoromethyl)pyridin-3-yl]methyl}pyrimidin-4-amine]
11 | < 5.00 | Nc1ncccc1-c1cccc(NCc2ccccc2C(F)(F)F)c1 [Compound 104, 3-(3-{[2-(Trifluoromethyl)benzyl]amino}phenyl)pyridin-2-amine]
12 | < 5.00 | Nc1ncccc1-c1cccc(NCc2ccccc2F)c1 [Compound 105, 3-{3-[(2-Fluorobenzyl)amino]phenyl}pyridin-2-amine]
13 | < 5.00 | Nc1ncccc1-c1cc(NCc2ccccc2F)ccn1 [Compound 106, N4-(2-Fluorobenzyl)-2,3′-bipyridine-2′,4-diamine]
14 | 6.00 to 7.00 | Nc1ncccc1-c1nccc(NCc2ccc(Cl)cc2C(F)(F)F)n1 [Compound 109, 2-(2-Aminopyridin-3-yl)-N-[4-chloro-2-(trifluoromethyl)benzyl]pyrimidin-4-amine]
15 | 5.00 to 6.00 | Nc1ncccc1-c1nccc(NCc2c(F)cccc2C(F)(F)F)n1 [Compound 111, 2-(2-Aminopyridin-3-yl)-N-[2-fluoro-6-(trifluoromethyl)benzyl]pyrimidin-4-amine]
16 | 5.00 to 6.00 | Nc1ncccc1-c1cc(NCc2ccccc2C(F)(F)F)ccn1 [Compound 113, N4-[2-(trifluoromethyl)benzyl]-2,3′-bipyridine-2′,4-diamine]
17 | < 5.00 | Nc1ncccc1-c1nccc(NC2CCOc3ccccc32)n1 (stereo not shown) [Compound 116, 2-(2-Aminopyridin-3-yl)-N-(3,4-dihydro-2H-chromen-4-yl)pyrimidin-4-amine]
18 | 6.00 to 7.00 | Nc1ncccc1-c1nccc(NCc2cccc3nsnc23)n1 [Compound 117, 2-(2-Aminopyridin-3-yl)-N-(2,1,3-benzothiadiazol-4-ylmethyl)pyrimidin-4-amine]

Row | pIC50 | SMILES
19 | < 5.00 | Nc1ncccc1-c1nccc(N2Cc3ccccc3C2=O)n1 [Compound 120, 2-[2-(2-Aminopyridin-3-yl)pyrimidin-4-yl]isoindolin-1-one]
20 | < 5.00 | Nc1ncccc1-c1nccc(NCc2cccnc2)n1 [Compound 121, 2-(2-Aminopyridin-3-yl)-N-(pyridin-3-ylmethyl)pyrimidin-4-amine]
21 | 6.00 to 7.00 | Nc1ncccc1-c1nccc(NCc2cccc3c2OCO3)n1 [Compound 122, 2-(2-Aminopyridin-3-yl)-N-(1,3-benzodioxol-4-ylmethyl)pyrimidin-4-amine]
22 | < 5.00 | Nc1ncccc1-c1nccc(NCc2ccncc2)n1 [Compound 128, 2-(2-Aminopyridin-3-yl)-N-(pyridin-4-ylmethyl)pyrimidin-4-amine]
23 | > 7.00 | FC(F)(F)c1cncc(-c2nccc(NCc3cccc4nsnc34)n2)c1 [Compound 133, N-(2,1,3-Benzothiadiazol-4-ylmethyl)-2-[5-(trifluoromethyl)pyridin-3-yl]pyrimidin-4-amine]
24 | < 5.00 | Nc1ncccc1-c1nccc(NCc2cccc3ccnn23)n1 [Compound 135, 2-(2-Aminopyridin-3-yl)-N-(pyrazolo[1,5-a]pyridin-7-ylmethyl)pyrimidin-4-amine]
25 | > 7.00 | Nc1ncc(C(F)(F)F)cc1-c1nccc(NCc2ccccc2C(F)(F)F)n1 [Compound 136, 2-[2-Amino-5-(trifluoromethyl)pyridin-3-yl]-N-[2-(trifluoromethyl)benzyl]pyrimidin-4-amine]
26 | 5.00 to 6.00 | Nc1ncccc1-c1nccc(NCc2cccnc2C(F)(F)F)n1 [Compound 137, 2-(2-Aminopyridin-3-yl)-N-{[2-(trifluoromethyl)pyridin-3-yl]methyl}pyrimidin-4-amine]
27 | 5.00 to 6.00 | C[C@H](Nc1ccnc(-c2cccnc2N)n1)c1ccccc1C(F)(F)F [Compound 138, 2-(2-Aminopyridin-3-yl)-N-{(1S)-1-[2-(trifluoromethyl)phenyl]ethyl}pyrimidin-4-amine]
28 | < 5.00 | c1ccc(CNc2ccnc(-c3cccnc3)n2)cc1 [Compound 139, N-Benzyl-2-pyridin-3-ylpyrimidin-4-amine]
29 | < 5.00 | Cc1cc(NCc2cccc(C(F)(F)F)c2)nc(-c2cccnc2)n1 [Compound 140, 6-Methyl-2-pyridin-3-yl-N-[3-(trifluoromethyl)benzyl]pyrimidin-4-amine]
30 | < 5.00 | Cc1cc(NCc2ccccc2)nc(-c2cccnc2)n1 [Compound 141, N-Benzyl-6-methyl-2-pyridin-3-ylpyrimidin-4-amine]
31 | < 5.00 | Cc1cc(NCc2cccc(F)c2)nc(-c2cccnc2)n1 [Compound 142, N-(3-Fluorobenzyl)-6-methyl-2-pyridin-3-ylpyrimidin-4-amine]
32 | < 5.00 | CNCC(Nc1ccnc(-c2cccnc2)n1)c1ccccc1 (stereo not shown) [Compound 143, N2-Methyl-1-phenyl-N1-(2-pyridin-3-ylpyrimidin-4-yl)ethane-1,2-diamine]
33 | < 5.00 | CNCC(Nc1ccnc(-c2cccnc2N)n1)c1ccccc1 (stereo not shown) [Compound 144, N1-[2-(2-Aminopyridin-3-yl)pyrimidin-4-yl]-N2-methyl-1-phenylethane-1,2-diamine]
34 | < 5.00 | CNC[C@@H](Nc1ccnc(-c2cccnc2N)n1)c1cccc(F)c1 [Compound 145, (S)-N1-[2-(2-Amino-pyridin-3-yl)-pyrimidin-4-yl]-1-(3-fluoro-phenyl)-N2-methyl-ethane-1,2-diamine]
35 | < 5.00 | CNC[C@@H](Nc1ccnc(-c2cccnc2N)n1)c1ccccc1 [Compound 146, (S)-N1-[2-(2-Amino-pyridin-3-yl)-pyrimidin-4-yl]-N2-methyl-1-phenyl-ethane-1,2-diamine]
36 | < 5.00 | CNC[C@H](Nc1ccnc(-c2cccnc2N)n1)c1ccccc1 [Compound 147, (R)-N1-[2-(2-Amino-pyridin-3-yl)-pyrimidin-4-yl]-N2-methyl-1-phenyl-ethane-1,2-diamine]

same assay, conditions: Table 4; 100 uM ATP; read-out: IC50 FAK

Row | pIC50 | SMILES
37 | 6.00 to 7.00 | N#Cc1cncc(-c2nccc(NCc3ccc(F)cc3F)n2)c1 [Compound 180, 5-[4-[(2,4-difluorophenyl)methylamino]pyrimidin-2-yl]pyridine-3-carbonitrile]
38 | 6.00 to 7.00 | CS(=O)(=O)n1cc(Nc2ccnc(-c3cncc(C(F)(F)F)c3)n2)cn1 [Compound 182, N-(1-methylsulfonylpyrazol-4-yl)-2-[5-(trifluoromethyl)-3-pyridyl]pyrimidin-4-amine]

same assay, conditions: Table 5; 100 uM ATP; read-out: FAK IC50

Row | pIC50 | SMILES
39 | 6.00 to 7.00 | Cc1ccccc1CNc1ccnc(-c2cncc(C(F)(F)F)c2)n1 [Compound 186, (2-Methyl-benzyl)-[2-(5-trifluoromethyl-pyridin-3-yl)-pyrimidin-4-yl]-amine]
40 | < 5.00 | COc1cncc(-c2nccc(NCCc3ccccc3)n2)c1 [Compound 187, [2-(5-Methoxy-pyridin-3-yl)-pyrimidin-4-yl]-phenethyl-amine]

— patent US9199962B2, “Substituted azaheterocycles for the treatment of cancer” (Merck Patent GmbH, priority 2011, dated 2015)
